Results on four compounds are retold here after ChEMBL document CHEMBL1150926, “A new meroditerpenoid dimer from an undescribed Philippine marine sponge of the genus Strongylophora” (J Nat Prod, 1998).

Series [1] in a line: Toxicity against Artemia salina assessed as mortality after 48 hrs. The series is classed as organism-based. The conditions noted are these: in vivo.
For series [2], the system named is Cladosporium cucumerinum. The experiment in a line: Antifungal activity against Cladosporium cucumerinum at 0.80 umol after 2 days. The series is classed as functional.
Series [3] relates to Cladosporium cucumerinum. Put plainly: Antifungal activity against Cladosporium cucumerinum at 0.10 umol after 2 days. The series is classed as functional.
For series [4], the system named is Spodoptera littoralis. The experiment in a line: Insecticidal activity against Spodoptera littoralis larvae assessed as inhibition of larval growth at 530 ppm treated in artificial diet after 6 days. The series is classed as functional. Further details: scale not given: the % may be the effect or the level left.
Series [5] concerns Spodoptera littoralis. Put plainly: Insecticidal activity against Spodoptera littoralis larvae assessed as inhibition of larval growth treated in artificial diet after 6 days. The series is classed as functional, organism-based.
Series [6] concerns Micrococcus luteus. Put plainly: Antibacterial activity against Micrococcus luteus at 100 ug/disk after 24 hrs by agar plate diffusion method. Type of series: functional.
Series [7] relates to Salmonella typhi. Put plainly: Antibacterial activity against Salmonella typhii at 100 ug/disk after 24 hrs by agar plate diffusion method. The series is classed as functional, Salmonella enterica subsp. enterica serovar Typhi.
The subject of series [8] is Bacillus subtilis. Put plainly: Antibacterial activity against Bacillus subtilis 168 at 100 ug/disk after 24 hrs by agar plate diffusion method. The following applies: subsp. subtilis str. 168. The series is classed as functional, organism-based.
The test system of series [9] is Staphylococcus aureus. The experiment in a line: Antibacterial activity against Staphylococcus aureus ATCC 25923 at 100 ug/disk after 24 hrs by agar plate diffusion method. Type of series: functional, organism-based.
Series [10] concerns Escherichia coli. Put plainly: Antibacterial activity against Escherichia coli ATCC 25922 at 100 ug/disk after 24 hrs by agar plate diffusion method. The series is classed as functional, organism-based.

Each structure is given as a SMILES string. Values after ≈ are worked out from the molar mass of the structure shown. Active and inactive are the calls of the source. The rule behind the calls is not given here.

As to `C[C@]12CC[C@H]3[C@@](C)(CCC[C@@]3(C)C(=O)O)[C@@H]1CC[C@@]1(C)Oc3c(O)ccc(Oc4ccc5c(c4)C[C@H]4[C@]6(C)CC[C@@H]7[C@](C)(CCC[C@]7(C)C(=O)O)[C@H]6CC[C@]4(C)O5)c3C[C@H]21` [DISTRONGYLOPHORINE], in series [1], the 50% lethal concentration (LC50) (commonly the concentration lethal to half of the exposed cells or organisms) at 48 h amounted to 10.5 µg/mL (≈ 12.8 µM). The outcome in series [2] and in series [3] was inactive.

Take `C[C@]12CCC[C@](C)(C(=O)O)[C@@H]1CC[C@]1(C)[C@@H]2CC[C@]2(C)Oc3ccc(O)cc3C[C@@H]12` [Strongylophorin-3]: in [4], the Activity was found to be 90%. Moreover, the EC50 in [5] was determined as 69 ppm. Besides, the outcome in series [6], in series [8], in series [9] and in series [10] was inactive. Also, the zone of inhibition at 100 µg/disc in series [7] (Salmonella enterica, read-out: IZ) came to 9 mm. The median lethal concentration (LC50) at 48 h in series [1] came out at 59.2 µg/mL (≈ 143 µM). For the same compound, the “inhibition zone (IZ)” value is on record as 15 mm in series [2] and 10 mm in [3].

Take `C[C@@]12CC[C@@H]3[C@]4(CCC[C@@]3(C)C(=O)OC4)[C@H]1CC[C@]1(C)Oc3ccc(O)cc3C[C@@H]21` [strongylophorine-2]: the zone of inhibition at 100 µg/disc in series [6] (read-out: IZ) was found to be 7 mm. Further, the result in series [7] (Salmonella enterica subsp. enterica serovar Typhi), in series [8], in series [9], in series [10], in [2] and in [3] was inactive. In addition, the 50% lethal concentration (LC50) at 48 h in [1] came out at 534 µg/mL (≈ 1300 µM).

Consider `CC(=O)[C@@]1(C)CCC[C@]2(C)[C@H]3CC[C@]4(C)Oc5ccc(O)cc5C[C@H]4[C@]3(C)CC[C@H]21` [strongylophorine-4], for which the LC50 at 48 h in series [1] amounted to 143 µg/mL (≈ 349 µM). Besides, the outcome in series [2] and in [3] was inactive.
